Assay [1] has as its target T1, Neuropeptide Y receptor type 2 (Homo sapiens, UniProt P49146).
T1 sequence (P49146 whole entry): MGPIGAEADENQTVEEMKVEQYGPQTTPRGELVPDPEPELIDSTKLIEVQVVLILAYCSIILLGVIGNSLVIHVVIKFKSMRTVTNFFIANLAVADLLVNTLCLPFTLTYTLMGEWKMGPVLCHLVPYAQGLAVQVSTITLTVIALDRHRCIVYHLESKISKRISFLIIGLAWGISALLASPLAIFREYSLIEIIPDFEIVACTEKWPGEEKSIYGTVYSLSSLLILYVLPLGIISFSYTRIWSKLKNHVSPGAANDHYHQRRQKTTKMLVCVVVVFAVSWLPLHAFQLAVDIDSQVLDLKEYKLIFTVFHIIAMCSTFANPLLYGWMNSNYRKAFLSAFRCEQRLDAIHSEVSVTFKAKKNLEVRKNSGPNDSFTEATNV
Nature of the assay: Displacement of [125I]-PYY from human Y2R expressed in CHO cell membranes after 60 mins by liquid scintillation method.

In assay [2] the target is T1, Neuropeptide Y receptor type 2. As to the kind of experiment: Agonist activity at human Y2R expressed in CHO cell membranes assessed as [35S]GTPgammaS binding after 120 mins by liquid scintillation method. It counts as functional. On the technique in general: GTPγS is a poorly hydrolysed GTP analogue; its binding reports G protein activation.
The subject of assay [3] is Mus musculus. As to the kind of experiment: Antiobesity activity in lean C57BL/6J mouse assessed as inhibition of food intake at 1 mg/kg administered via subcutaneous osmotic pumps for 3 continuous days relative to control. The following applies: sc.

IC50, EC50 and inhibition in vivo data for 16 compounds are collected here from ChEMBL document CHEMBL4033754, “Antiobesity Effect of a Short-Length Peptide YY Analogue after Continuous Administration in Mice” (ACS Med Chem Lett, 2017).

Where a SMILES comes first, the peptide text is derived from it. [ ]: non-standard residue; d: D form. The star is where a group is joined. ξ: configuration not given here. Cha = N[C@@H](CC1CCCCC1)C(=O)O; ξCha = NC(CC1CCCCC1)C(=O)O; Isobutyryl = CC(C)C(=O)*; Aib = CC(C)(N)C(=O)O; Bz = O=C(c1ccccc1)*; ξAbu = CCC(N)C(=O)O; Sar = CNCC(=O)O

By IC50 is commonly meant the midpoint of a concentration-inhibition curve. Low readings indicate greater potency in that assay, high ones weaker potency in that assay. By EC50 is commonly meant the concentration that produces a half-maximal response. `CCC(NC(=O)[C@H](CCCNC(=N)N)NC(=O)[C@@H](CC(C)C)NC(=O)[C@@H](CO)NC(C)=O)C(=O)NC(CC1CCCCC1)C(=O)NC(CC1CCCCC1)C(=O)N[C@@H](CC(N)=O)C(=O)N[C@@H](CC(C)C)C(=O)NC(C)(C)C(=O)N[C@H](C(=O)N[C@@H](CCCNC(=N)N)C(=O)N[C@@H](CCC(N)=O)C(=O)N[C@@H](CCCNC(=N)N)C(=O)NC(CC1CCCCC1)C(N)=O)[C@@H](C)O` (stereo partly specified) showed a half-inhibitory concentration (IC50) in assay [1] of 23 nM. Also, the EC50 in assay [2] was found to be 3.8 nM.
The matching figures for `CCC(NC(=O)[C@H](CCCNC(=N)N)NC(=O)[C@H](CC(C)C)NC(=O)[C@H](CO)NC(C)=O)C(=O)NC(CC1CCCCC1)C(=O)NC(CC1CCCCC1)C(=O)N[C@@H](CC(N)=O)C(=O)N[C@@H](CC(C)C)C(=O)NC(C)(C)C(=O)N[C@H](C(=O)N[C@@H](CCCNC(=N)N)C(=O)N[C@@H](CCC(N)=O)C(=O)N[C@@H](CCCNC(=N)N)C(=O)NC(CC1CCCCC1)C(N)=O)[C@@H](C)O` (stereo partly specified): 8.8 nM and 3 nM.
In the same order, the values of `CC(=O)N[C@@H](CO)C(=O)N(C)[C@@H](C)C(=O)N[C@@H](CCCNC(=N)N)C(=O)N[C@@H](Cc1cnc[nH]1)C(=O)NC(CC1CCCCC1)C(=O)NC(CC1CCCCC1)C(=O)N[C@@H](CC(N)=O)C(=O)N[C@@H](CC(C)C)C(=O)NC(C)(C)C(=O)N[C@H](C(=O)N[C@@H](CCCNC(=N)N)C(=O)N[C@@H](CCC(N)=O)C(=O)N[C@@H](CCCNC(=N)N)C(=O)NC(CC1CCCCC1)C(N)=O)[C@@H](C)O` (stereo partly specified) are 5.4 nM and 1.2 nM.
In the same order, the values of `CCC(NC(=O)[C@H](CCCNC(=N)N)NC(=O)[C@H](CC(C)C)NC(=O)[C@@H](CO)NC(C)=O)C(=O)NC(CC1CCCCC1)C(=O)NC(CC1CCCCC1)C(=O)N[C@@H](CC(N)=O)C(=O)N[C@@H](CC(C)C)C(=O)NC(C)(C)C(=O)N[C@H](C(=O)N[C@@H](CCCNC(=N)N)C(=O)N[C@@H](CCC(N)=O)C(=O)N[C@@H](CCCNC(=N)N)C(=O)NC(CC1CCCCC1)C(N)=O)[C@@H](C)O` (stereo partly specified) are 12 nM and 5.5 nM.
As to `CCC(NC(=O)[C@H](CCCNC(=N)N)NC(=O)[C@@H](CC(C)C)NC(=O)[C@H](CO)NC(C)=O)C(=O)NC(CC1CCCCC1)C(=O)NC(CC1CCCCC1)C(=O)N[C@@H](CC(N)=O)C(=O)N[C@@H](CC(C)C)C(=O)NC(C)(C)C(=O)N[C@H](C(=O)N[C@@H](CCCNC(=N)N)C(=O)N[C@@H](CCC(N)=O)C(=O)N[C@@H](CCCNC(=N)N)C(=O)NC(CC1CCCCC1)C(N)=O)[C@@H](C)O` (stereo partly specified), the IC50 in assay [1] was 11 nM. Moreover, the EC50 in assay [2] stood at 1.3 nM.
The term inhibition in vivo denotes the change of the read-out against control, counted positive when it falls. As to `CC(=O)N[C@@H](CO)C(=O)N1CCC[C@@H]1C(=O)N[C@@H](CCCNC(=N)N)C(=O)N[C@@H](Cc1cnc[nH]1)C(=O)NC(CC1CCCCC1)C(=O)NC(CC1CCCCC1)C(=O)N[C@@H](CC(N)=O)C(=O)N[C@@H](CC(C)C)C(=O)NC(C)(C)C(=O)N[C@H](C(=O)N[C@@H](CCCNC(=N)N)C(=O)N[C@@H](CCC(N)=O)C(=O)N[C@@H](CCCNC(=N)N)C(=O)NC(CC1CCCCC1)C(N)=O)[C@@H](C)O` (stereo partly specified), the concentration for half-maximal inhibition (IC50) in assay [1] worked out at 1.5 nM. In addition, the EC50 in assay [2] amounted to 0.61 nM. Moreover, in assay [3], the inhibition in vivo at 1 mg/kg turned out to be 33%.
In the same order, the values of `CC(=O)N[C@@H](CO)C(=O)N(C)[C@H](C)C(=O)N[C@@H](CCCNC(=N)N)C(=O)N[C@@H](Cc1cnc[nH]1)C(=O)NC(CC1CCCCC1)C(=O)NC(CC1CCCCC1)C(=O)N[C@@H](CC(N)=O)C(=O)N[C@@H](CC(C)C)C(=O)NC(C)(C)C(=O)N[C@H](C(=O)N[C@@H](CCCNC(=N)N)C(=O)N[C@@H](CCC(N)=O)C(=O)N[C@@H](CCCNC(=N)N)C(=O)NC(CC1CCCCC1)C(N)=O)[C@@H](C)O` (stereo partly specified) are 2.8 nM, 0.59 nM and 28%.
The compound `CCC(NC(=O)[C@H](CCCNC(=N)N)NC(=O)[C@H](CC(C)C)NC(=O)[C@H](CO)NC(=O)[C@H](C)NC(C)=O)C(=O)NC(CC1CCCCC1)C(=O)NC(CC1CCCCC1)C(=O)N[C@@H](CC(N)=O)C(=O)N[C@@H](CC(C)C)C(=O)NC(C)(C)C(=O)N[C@H](C(=O)N[C@@H](CCCNC(=N)N)C(=O)N[C@@H](CCC(N)=O)C(=O)N[C@@H](CCCNC(=N)N)C(=O)NC(CC1CCCCC1)C(N)=O)[C@@H](C)O` (stereo partly specified) (Ac-ASLR[ξAbu][ξCha][ξCha]NL[Aib]TRQR[ξCha]-NH2) had an IC50 in assay [1] of 6.8 nM. Also, the EC50 in assay [2] came to 4.6 nM.
Compound `CCC(NC(=O)[C@H](CCCNC(=N)N)NC(=O)[C@H](CC(C)C)NC(C)=O)C(=O)NC(CC1CCCCC1)C(=O)NC(CC1CCCCC1)C(=O)N[C@@H](CC(N)=O)C(=O)N[C@@H](CC(C)C)C(=O)NC(C)(C)C(=O)N[C@H](C(=O)N[C@@H](CCCNC(=N)N)C(=O)N[C@@H](CCC(N)=O)C(=O)N[C@@H](CCCNC(=N)N)C(=O)NC(CC1CCCCC1)C(N)=O)[C@@H](C)O` (stereo partly specified) (Ac-LR[ξAbu][ξCha][ξCha]NL[Aib]TRQR[ξCha]-NH2) yielded a half-inhibitory concentration (IC50) in assay [1] of 17 nM. Also, the EC50 in assay [2] stood at 6.4 nM.
In the same order, the values of `CC(=O)N[C@@H](CO)C(=O)NCC(=O)N[C@@H](CCCNC(=N)N)C(=O)N[C@@H](Cc1cnc[nH]1)C(=O)NC(CC1CCCCC1)C(=O)NC(CC1CCCCC1)C(=O)N[C@@H](CC(N)=O)C(=O)N[C@@H](CC(C)C)C(=O)NC(C)(C)C(=O)N[C@H](C(=O)N[C@@H](CCCNC(=N)N)C(=O)N[C@@H](CCC(N)=O)C(=O)N[C@@H](CCCNC(=N)N)C(=O)NC(CC1CCCCC1)C(N)=O)[C@@H](C)O` (stereo partly specified) (Ac-SGRH[ξCha][ξCha]NL[Aib]TRQR[ξCha]-NH2) are 4.8 nM and 1.3 nM.
`CC(=O)N[C@@H](CO)C(=O)NC(C)(C)C(=O)N[C@@H](CCCNC(=N)N)C(=O)N[C@@H](Cc1cnc[nH]1)C(=O)NC(CC1CCCCC1)C(=O)NC(CC1CCCCC1)C(=O)N[C@@H](CC(N)=O)C(=O)N[C@@H](CC(C)C)C(=O)NC(C)(C)C(=O)N[C@H](C(=O)N[C@@H](CCCNC(=N)N)C(=O)N[C@@H](CCC(N)=O)C(=O)N[C@@H](CCCNC(=N)N)C(=O)NC(CC1CCCCC1)C(N)=O)[C@@H](C)O` (stereo partly specified) (Ac-S[Aib]RH[ξCha][ξCha]NL[Aib]TRQR[ξCha]-NH2) had an IC50 in assay [1] of 2 nM. Further, the EC50 in assay [2] is 0.55 nM. In addition, the inhibition in vivo at 1 mg/kg in assay [3] is 51%.
In the same order, the values of `CC(=O)N[C@@H](CO)C(=O)N(C)CC(=O)N[C@@H](CCCNC(=N)N)C(=O)N[C@@H](Cc1cnc[nH]1)C(=O)NC(CC1CCCCC1)C(=O)NC(CC1CCCCC1)C(=O)N[C@@H](CC(N)=O)C(=O)N[C@@H](CC(C)C)C(=O)NC(C)(C)C(=O)N[C@H](C(=O)N[C@@H](CCCNC(=N)N)C(=O)N[C@@H](CCC(N)=O)C(=O)N[C@@H](CCCNC(=N)N)C(=O)NC(CC1CCCCC1)C(N)=O)[C@@H](C)O` (stereo partly specified) (Ac-S[Sar]RH[ξCha][ξCha]NL[Aib]TRQR[ξCha]-NH2) are 2.8 nM, 1 nM and 13%.
Compound `CCC(NC(=O)[C@H](CCCNC(=N)N)NC(=O)c1ccccc1)C(=O)NC(CC1CCCCC1)C(=O)NC(CC1CCCCC1)C(=O)N[C@@H](CC(N)=O)C(=O)N[C@@H](CC(C)C)C(=O)NC(C)(C)C(=O)N[C@H](C(=O)N[C@@H](CCCNC(=N)N)C(=O)N[C@@H](CCC(N)=O)C(=O)N[C@@H](CCCNC(=N)N)C(=O)NC(CC1CCCCC1)C(N)=O)[C@@H](C)O` (stereo partly specified) (Bz-R[ξAbu][ξCha][ξCha]NL[Aib]TRQR[ξCha]-NH2) yielded an IC50 in assay [1] of 5.7 nM. Moreover, in assay [2], the EC50 came to 4.6 nM.
Turning to `CC(C)C[C@H](NC(=O)[C@H](CO)NC(=O)[C@H](C)N)C(=O)N[C@@H](CCCNC(=N)N)C(=O)N[C@@H](Cc1cnc[nH]1)C(=O)N[C@@H](CC1CCCCC1)C(=O)N[C@@H](CC1CCCCC1)C(=O)N[C@@H](CC(N)=O)C(=O)N[C@@H](CC(C)C)C(=O)NC(C)(C)C(=O)N[C@H](C(=O)N[C@@H](CCCNC(=N)N)C(=O)N[C@@H](CCC(N)=O)C(=O)N[C@@H](CCCNC(=N)N)C(=O)N[C@@H](CC1CCCCC1)C(N)=O)[C@@H](C)O` (H-ASLRH[Cha][Cha]NL[Aib]TRQR[Cha]-NH2), the 50% inhibitory concentration (IC50) in assay [1] amounted to 1.7 nM. The concentration giving a half-maximal response (EC50) in assay [2] came out at 0.74 nM.
The matching figures for `CCC(NC(=O)[C@H](CCCNC(=N)N)NC(=O)[C@H](CC(C)C)NC(=O)[C@H](CO)NC(=O)[C@H](C)N)C(=O)NC(CC1CCCCC1)C(=O)NC(CC1CCCCC1)C(=O)N[C@@H](CC(N)=O)C(=O)N[C@@H](CC(C)C)C(=O)NC(C)(C)C(=O)N[C@H](C(=O)N[C@@H](CCCNC(=N)N)C(=O)N[C@@H](CCC(N)=O)C(=O)N[C@@H](CCCNC(=N)N)C(=O)NC(CC1CCCCC1)C(N)=O)[C@@H](C)O` (stereo partly specified) (H-ASLR[ξAbu][ξCha][ξCha]NL[Aib]TRQR[ξCha]-NH2): 2.7 nM and 2.5 nM.
In assay [1], `CCC(NC(=O)[C@H](CCCNC(=N)N)NC(=O)C(C)C)C(=O)NC(CC1CCCCC1)C(=O)NC(CC1CCCCC1)C(=O)N[C@@H](CC(N)=O)C(=O)N[C@@H](CC(C)C)C(=O)NC(C)(C)C(=O)N[C@H](C(=O)N[C@@H](CCCNC(=N)N)C(=O)N[C@@H](CCC(N)=O)C(=O)N[C@@H](CCCNC(=N)N)C(=O)NC(CC1CCCCC1)C(N)=O)[C@@H](C)O` (stereo partly specified) (Isobutyryl-R[ξAbu][ξCha][ξCha]NL[Aib]TRQR[ξCha]-NH2) gave an IC50 of 7.3 nM. Further, the EC50 in assay [2] turned out to be 4.2 nM.
